What was measured:
[1] = molecular target: T1, human M2 receptor (Homo sapiens, UniProt P08172); format: cell-based; settings: shift in the acetylcholine dose-response curve (Allosteric EC50 shift, GraphPad PRISM); α >1 = positive cooperativity
T1 sequence (P08172 1-466): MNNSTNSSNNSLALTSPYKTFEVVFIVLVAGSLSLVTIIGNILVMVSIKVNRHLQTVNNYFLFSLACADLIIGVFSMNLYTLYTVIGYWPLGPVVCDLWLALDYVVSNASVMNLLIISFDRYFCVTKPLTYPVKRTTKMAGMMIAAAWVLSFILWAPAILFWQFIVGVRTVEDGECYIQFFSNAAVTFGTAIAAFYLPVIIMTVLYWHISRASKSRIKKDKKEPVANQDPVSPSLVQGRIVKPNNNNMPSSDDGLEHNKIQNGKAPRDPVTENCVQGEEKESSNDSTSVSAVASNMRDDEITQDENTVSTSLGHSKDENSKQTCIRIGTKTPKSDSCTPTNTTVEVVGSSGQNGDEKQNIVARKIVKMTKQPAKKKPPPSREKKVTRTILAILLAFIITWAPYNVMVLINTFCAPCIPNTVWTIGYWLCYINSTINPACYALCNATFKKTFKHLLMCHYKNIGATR

[2] = molecular target: T1, human M2 receptor; settings: for EC50: Receptor activity EC50, M2-GIRK1/4 activation test, acetylcholine at EC20, allosteric potency, in some cases mean values from two or more determinations; for Emax: read-out: Efficiency

SMILES	Cooperativity (alpha factor) [1]	EC50 [2] [nM]	Emax [2] [%]
CN(CCF)c1ccc2c(=O)c(C(=O)NC(C(F)(F)F)C(F)(F)F)cn(-c3ccc(F)cc3F)c2n1 [Example 111, 1-(2,4-Difluorophenyl)-7-[(2-fluoroethyl)(methyl)amino]-N-(1,1,1,3,3,3-hexafluoropropan-2-yl)-4-oxo-1,4-dihydro-1,8-naphthyridine-3-carboxamide]	26	35	–
O=C(NC12CC3CC(CC(C3)C1)C2)c1cn(-c2ccc(F)cc2F)c2nc(N3CCOC3=O)ccc2c1=O [Example 128, 1-(2,4-Difluorophenyl)-4-oxo-7-(2-oxo-1,3-oxazolidin-3-yl)-N-(tricyclo[3.3.1.1^3,7]dec-1-yl)-1,4-dihydro-1,8-naphthyridine-3-carboxamide]	18	57	–
O=C(Nc1c(Cl)cccc1Cl)c1cn(-c2ccc(F)cc2F)c2nc(NCC(F)(F)F)ccc2c1=O [Example 163, N-(2,6-Dichlorophenyl)-1-(2,4-difluorophenyl)-4-oxo-7-[(2,2,2-trifluoroethyl)amino]-1,4-dihydro-1,8-naphthyridine-3-carboxamide]	13	173	–
COC(=O)N1CCN(c2ccc3c(=O)c(C(=O)Nc4c(Cl)cccc4Cl)cn(-c4ccc(F)cc4F)c3n2)CC1 [Example 164, Methyl 4-{6-[(2,6-dichlorophenyl)carbamoyl]-8-(2,4-difluorophenyl)-5-oxo-5,8-dihydro-1,8-naphthyridin-2-yl}piperazine-1-carboxylate]	21	31	–
O=C(NC12CC3CC(CC(C3)C1)C2)c1cn(-c2ccc(F)cc2F)c2nc(N3CCC3=O)ccc2c1=O [Example 168]	13	60	–
CCC(NC(=O)c1cn(-c2ccc(F)cc2F)c2nc(N3C[C@@H](O)CC3=O)ccc2c1=O)C(F)(F)F (some centres unmarked) [Example 176]	28	95	94.1
CC12CCC(NC(=O)c3cn(-c4ccc(F)cc4F)c4nc(N5CC(O)CC5=O)ccc4c3=O)(CC1)CC2 (centres unmarked) [Example 181]	36	59	–
O=C(NC12CC3CC(CC(C3)C1)C2)c1cn(-c2ccc(F)cc2F)c2nc(N3CC(F)CC3=O)ccc2c1=O (centres unmarked) [Example 187, 1-(2,4-Difluorophenyl)-7-[4-fluoro-2-oxopyrrolidin-1-yl]-4-oxo-N-(tricyclo[3.3.1.1^3,7]dec-1-yl)-1,4-dihydro-1,8-naphthyridine-3-carboxamide]	10	98	–
CC(C)(NC(=O)c1cn(-c2ccc(F)cc2F)c2nc(N3CC[C@@H](OC(F)F)C3)ccc2c1=O)c1c(F)cccc1F [Example 188, 7-[(3R)-3-(Difluoromethoxy)pyrrolidin-1-yl]-1-(2,4-difluorophenyl)-N-[2-(2,6-difluorophenyl)propan-2-yl]-4-oxo-1,4-dihydro-1,8-naphthyridine-3-carboxamide]	9	113	–
O=C(Nc1c(Cl)cccc1Cl)c1cn(-c2ccc(F)cc2F)c2nc(N3CC[C@H](O)C3=O)ccc2c1=O [Example 202, N-(2,6-Dichlorophenyl)-1-(2,4-difluorophenyl)-7-[(3S)-3-hydroxy-2-oxopyrrolidin-1-yl]-4-oxo-1,4-dihydro-1,8-naphthyridine-3-carboxamide]	18	89	–
CC[C@H](NC(=O)c1cn(-c2ccccc2F)c2nc(N(C)C)ccc2c1=O)C(F)(F)F [Example 203, 7-(Dimethylamino)-1-(2-fluorophenyl)-4-oxo-N-[(2S)-1,1,1-trifluorobutan-2-yl]-1,4-dihydro-1,8-naphthyridine-3-carboxamide]	8	62	–
O=C(NC(c1ccccc1Cl)C(F)(F)F)c1cn(-c2ccc(F)cc2F)c2nc(N3CC[C@H](F)C3)ccc2c1=O (stereo partly drawn) [Example 217, N-[1-(2-Chlorophenyl)-2,2,2-trifluoroethyl]-1-(2,4-difluorophenyl)-7-[(3S)-3-fluoropyrrolidin-1-yl]-4-oxo-1,4-dihydro-1,8-naphthyridine-3-carboxamide]	18	36	–
CCC(COC(F)(F)F)NC(=O)c1cn(-c2ccc(F)cc2F)c2nc(N3C[C@@H](O)CC3=O)ccc2c1=O (stereo partly drawn) [Example 234, 1-(2,4-Difluorophenyl)-7-[(4S)-4-hydroxy-2-oxopyrrolidin-1-yl]-4-oxo-N-[1-(trifluoromethoxy)butan-2-yl]-1,4-dihydro-1,8-naphthyridine-3-carboxamide]	28	75	–
CC[C@@H](NC(=O)c1cn(-c2ccccc2F)c2nc(N3C[C@@H](O)CC3=O)ccc2c1=O)C(F)(F)F [Example 239, 1-(2-Fluorophenyl)-7-[(4S)-4-hydroxy-2-oxopyrrolidin-1-yl]-4-oxo-N-[(2R)-1,1,1-trifluorobutan-2-yl]-1,4-dihydro-1,8-naphthyridine-3-carboxamide]	30	112	99.3
CC[C@H](NC(=O)c1cn(-c2ccc(F)cc2F)c2nc(N3C[C@@H](C(=O)OC)OC3=O)ccc2c1=O)C(F)(F)F [Example 258, Methyl (5S)-3-[8-(2,4-difluorophenyl)-5-oxo-6-{[(2S)-1,1,1-trifluorobutan-2-yl]carbamoyl}-5,8-dihydro-1,8-naphthyridin-2-yl]-2-oxo-1,3-oxazolidine-5-carboxylate]	30	147	–
CC[C@H](NC(=O)c1cn(-c2ccc(F)cc2F)c2nc(N3C[C@H](C(=O)OC)OC3=O)ccc2c1=O)C(F)(F)F [Example 259, Methyl (5R)-3-[8-(2,4-difluorophenyl)-5-oxo-6-{[(2S)-1,1,1-trifluorobutan-2-yl]carbamoyl}-5,8-dihydro-1,8-naphthyridin-2-yl]-2-oxo-1,3-oxazolidine-5-carboxylate]	14	560	–

Second part, led by results:

Cooperativity (alpha factor) [1]	EC50 [2] [nM]	SMILES	Emax [2] [%]
14	115	CC[C@@H](NC(=O)c1cn(-c2ccc(F)cc2F)c2nc(NCC(F)F)ccc2c1=O)C(F)(F)F [Example 123, 7-[(2,2-Difluoroethyl)amino]-1-(2,4-difluorophenyl)-4-oxo-N-[(2R)-1,1,1-trifluorobutan-2-yl]-1,4-dihydro-1,8-naphthyridine-3-carboxamide]	–
5	138	CCC(NC(=O)c1cn(-c2ccc(F)cc2F)c2nc(N3CCCC3=O)ccc2c1=O)C(F)(F)F (centres unmarked) [Example 177]	–
12	46	CC[C@@H](NC(=O)c1cn(-c2ccc(F)cc2F)c2nc(N3C[C@@H]4C(COC)[C@@H]4C3)ccc2c1=O)C(F)(F)F (stereo partly drawn) [Example 190, 1-(2,4-Difluorophenyl)-7-[(1R,5S)-6-(methoxymethyl)-3-azabicyclo[3.1.0]hex-3-yl]-4-oxo-N-[(2R)-1,1,1-trifluorobutan-2-yl]-1,4-dihydro-1,8-naphthyridine-3-carboxamide]	–
9	54	CC[C@@H](NC(=O)c1cn(-c2ccc(F)cc2F)c2nc(N3CCCC3)ccc2c1=O)C(F)(F)F [Example 192, 1-(2,4-Difluorophenyl)-4-oxo-7-(pyrrolidin-1-yl)-N-[(2R)-1,1,1-trifluorobutan-2-yl]-1,4-dihydro-1,8-naphthyridine-3-carboxamide]	–
50	36	CC[C@@H](NC(=O)c1cn(-c2ccc(F)cc2F)c2nc(N3C[C@@H](OC)CC3=O)ccc2c1=O)C(F)(F)F [Example 193, 1-(2,4-Difluorophenyl)-7-[(4S)-4-methoxy-2-oxopyrrolidin-1-yl]-4-oxo-N-[(2R)-1,1,1-trifluorobutan-2-yl]-1,4-dihydro-1,8-naphthyridine-3-carboxamide]	–
4	105	CC[C@@H](NC(=O)c1cn(-c2ccc(F)cc2F)c2nc(N3CCC3=O)ccc2c1=O)C(F)(F)F [Example 205, 1-(2,4-Difluorophenyl)-4-oxo-7-(2-oxoazetidin-1-yl)-N-[(2R)-1,1,1-trifluorobutan-2-yl]-1,4-dihydro-1,8-naphthyridine-3-carboxamide]	–
13	75	CC[C@@H](NC(=O)c1cn(-c2ccc(F)cc2F)c2nc(N3CC(O)C3)ccc2c1=O)C(F)(F)F [Example 261, 1-(2,4-Difluorophenyl)-7-(3-hydroxyazetidin-1-yl)-4-oxo-N-[(2R)-1,1,1-trifluorobutan-2-yl]-1,4-dihydro-1,8-naphthyridine-3-carboxamide]	–
27	72	CC[C@@H](NC(=O)c1cn(-c2ccc(F)cc2F)c2nc(N3CC(O)(C(F)(F)F)C3)ccc2c1=O)C(F)(F)F [Example 262, 1-(2,4-Difluorophenyl)-7-[3-hydroxy-3-(trifluoromethyl)azetidin-1-yl]-4-oxo-N-[(2R)-1,1,1-trifluorobutan-2-yl]-1,4-dihydro-1,8-naphthyridine-3-carboxamide]	–

Reference: patent US20190367516A1 (Bayer Pharma Aktiengesellschaft, priority 2015, published 2019)
